What was measured:
Experiment in all cases: relative viability (nuclei count vs DMSO), 5 days (fraction); higher = more cells survive
[1] = compound: C1=CC=C(C(=C1)C2=CC=C(C=C2)C3=CSC4=C3C(=C(C(=O)N4)C#N)O)O + O=C(CCCCCCC(=O)Nc1ccccc1)NO [Vorinostat] (partner 1 µM)
In short: (§1)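 After 5 days of treatment, lung cancer cells in 1536-well plates were fixed and stained in a single step (final 0.05% Triton X-100, 1% formaldehyde, 1 ug/ml Hoechst) and their nuclei counted on 4× images. Treatment had been applied by pin tool the day after seeding as one drug alone or as a fixed anchor-drug dose with five library-drug doses (not always all listed) in √10 steps. Relative viability is the nuclei count of treated wells divided by that of vehicle wells, and values are medians of duplicate plates.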

Ricolinostat + OSI-027 = compound: O=C(CCCCCCNC(=O)c1cnc(N(c2ccccc2)c2ccccc2)nc1)NO [Ricolinostat] + COc1cccc2cc(-c3nc([C@H]4CC[C@H](C(=O)O)CC4)n4ncnc(N)c34)[nH]c12 [OSI-027] (partner 0.5 µM)
In short: as §1

[2] = compound: O=C(CCCCCCNC(=O)c1cnc(N(c2ccccc2)c2ccccc2)nc1)NO [Ricolinostat] + C[C@@H](Oc1cc(-c2cnn(C3CCNCC3)c2)cnc1N)c1c(Cl)ccc(F)c1Cl [Crizotinib] (partner 1 µM)
In short: as §1

| Cell Line | relative viability ([1]; first compound 0.08 µM) | relative viability ([1]; first compound 0.253 µM) | relative viability ([1]; first compound 0.8 µM) | relative viability ([1]; first compound 2.53 µM) | relative viability ([1]; first compound 8 µM) | relative viability (Ricolinostat + OSI-027; first compound 0.253 µM) | relative viability (Ricolinostat + OSI-027; first compound 0.8 µM) | relative viability (Ricolinostat + OSI-027; first compound 2.53 µM) | relative viability ([2]; first compound 0.08 µM) | relative viability ([2]; first compound 0.253 µM) | relative viability ([2]; first compound 0.8 µM) | relative viability ([2]; first compound 2.53 µM) | relative viability (Ricolinostat + OSI-027; first compound 0.08 µM) |
| --- | --- | --- | --- | --- | --- | --- | --- | --- | --- | --- | --- | --- | --- |
| A-427 | 0.923 | 0.861 | 0.864 | 0.904 | 0.859 | 0.435 | 0.414 | 0.351 | 0.747 | 0.869 | 0.82 | 0.63 | – |
| NCI-H1975 | 0.665 | 0.78 | 0.736 | 0.81 | 0.677 | 0.84 | 0.76 | 0.599 | 1.01 | 0.954 | – | 0.884 | 0.638 |
| HCC-827 | 0.666 | 0.946 | 0.95 | 0.872 | 0.918 | 0.83 | 0.721 | 0.841 | 0.827 | 0.956 | 0.841 | 0.846 | 0.687 |
| UMC-11 | – | 0.352 | 0.409 | 0.381 | 0.412 | 0.517 | 0.487 | 0.235 | 0.544 | 0.627 | 0.561 | 0.218 | 0.406 |
| NCI-H3122 | 1 | 0.992 | 1.14 | 1.09 | 0.89 | 0.992 | 0.99 | 1.06 | 0.219 | 0.307 | 0.326 | 0.336 | – |
| LXF-289 | 0.902 | 0.831 | 0.833 | 0.82 | 0.907 | 0.906 | 0.782 | 0.749 | 0.804 | 0.852 | 0.804 | 0.719 | 0.668 |
| NCI-H647 | – | 0.947 | 0.58 | 0.637 | 0.461 | 0.508 | 0.489 | 0.543 | 1.08 | 1.05 | 1.01 | 0.661 | 0.546 |
| COR-L23 | 0.404 | 0.477 | 0.409 | 0.38 | 0.379 | 0.756 | 0.789 | 0.409 | 0.506 | 0.545 | 0.571 | 0.277 | 0.595 |
| BEN | 0.567 | 0.678 | 0.59 | 0.531 | 0.573 | 0.344 | 0.324 | 0.307 | 0.745 | 0.789 | 0.903 | 0.68 | 0.287 |
| LC-2-ad | 0.627 | 0.643 | 0.705 | 0.722 | 0.654 | 0.711 | 0.635 | 0.517 | – | 0.44 | 0.445 | 0.484 | 0.723 |
| NCI-H650 | 0.412 | 0.438 | 0.422 | 0.426 | 0.309 | 0.585 | 0.503 | 0.374 | – | 0.811 | 0.529 | 0.63 | 0.405 |
| NCI-H1563 | – | – | – | – | – | 0.731 | 0.774 | 0.62 | 0.862 | 0.822 | 0.732 | 0.689 | 0.759 |
| NCI-H1793 | 0.58 | 1.05 | 0.497 | 0.634 | 0.681 | 0.252 | 0.284 | 0.221 | – | – | – | – | – |
| HCC-78 | 0.514 | 0.678 | 0.448 | 0.523 | 0.352 | 0.372 | 0.341 | 0.395 | – | 0.288 | 0.279 | 0.25 | – |
| LCLC-97TM1 | 0.614 | 1.42 | 0.636 | 0.724 | 0.431 | 0.524 | 0.541 | 0.27 | 0.363 | 0.435 | 0.277 | 0.286 | 0.271 |
| NCI-H2009 | 0.728 | 0.715 | 0.859 | 0.716 | 0.638 | 0.565 | 0.553 | 0.567 | 1.02 | 1.04 | 0.938 | 0.888 | 0.447 |
| H3255 | 0.823 | 0.863 | – | 0.886 | 0.784 | 0.582 | 0.55 | 0.629 | 0.822 | 0.823 | 0.804 | 0.749 | 0.496 |
| EPLC-272H | 0.466 | 0.387 | 0.357 | 0.401 | 0.42 | 0.305 | 0.273 | 0.263 | – | 0.936 | 0.82 | 0.622 | 0.256 |
| NCI-H522 | 0.929 | 0.898 | 1.06 | 0.921 | 0.86 | 0.736 | 0.665 | 0.69 | – | – | – | – | 0.822 |
| NCI-H1623 | – | – | – | – | – | 0.428 | 0.414 | 0.312 | – | – | – | – | 0.389 |
| NCI-H2342 | 0.801 | 0.83 | 0.871 | 0.71 | 0.586 | 0.588 | 0.575 | 0.633 | – | – | – | – | 0.515 |
| Calu-6 | – | – | – | – | – | – | – | – | 0.712 | 0.766 | 0.638 | 0.51 | – |
| A549 | – | – | – | – | – | – | – | – | 0.757 | 0.714 | 0.581 | 0.291 | – |
| NCI-H1703 | – | – | – | – | – | – | – | – | 0.63 | 1.02 | 0.891 | 0.612 | – |
| NCI-H1299 | – | – | – | – | – | – | – | – | 0.928 | 0.917 | 0.974 | 0.891 | – |
| EBC-1 | – | – | – | – | – | – | – | – | 0.186 | 0.163 | 0.164 | 0.224 | – |
| NCI-H1648 | – | 0.319 | 0.876 | 0.593 | 0.391 | 0.281 | 0.249 | 0.259 | – | – | – | – | 0.28 |
| NCI-H1395 | – | 0.683 | 0.551 | 0.618 | 0.606 | 0.651 | 0.613 | 0.663 | – | – | – | – | – |
| SW 900 | – | 0.633 | 0.412 | 0.406 | 0.358 | 0.808 | 0.562 | 0.535 | – | – | – | – | 0.462 |
| IA-LM | – | 1.37 | 0.856 | 1 | 0.376 | – | – | – | – | 0.763 | 0.784 | 0.578 | – |
